# Measurements reported in patent publication US6117833A, “Bleaching compositions and method for bleaching substrates directly with air” (priority 1998, dated 2000).
# Entries after “also recorded” stand apart in the source; their conditions may differ.
# Tests used:
# [1] = Bleaching on BC-1 by 4-Ethylbenzaldehyde with various initiators; design: key to Δ(ΔR), #1 / Δ(ΔR), #2 / Δ(ΔR), #3 / Δ(ΔR), Average / ΔΔRave: Δ(ΔR): reflectance change of stained cloth relative to buffer ΔR; conditions: for cleaning / bleaching (in words): initiator alone or 4-EBA alone
# Protocol: A series of experiments were conducted to evaluate the bleaching effectiveness of NHPI and related imides. Table IV reports the effectiveness on tea stained cloth swatches by various imide initiators in combination with 4-ethylbenzaldehyde.
# Value for Carbonate Buffer = ΔR
# Value for Initiator = Δ(ΔR)
# Value for 4EBA + Initiator = Δ(ΔR)
# * = Statistically significant bleaching over buffer alone (σav
# [2] = Bleaching of tea-stained (BC-1) swatches by aldehyde + NHPI + air in Tergotometer (change in reflectance); conditions: aldehyde 15 mM, NHPI 1 mM, carbonate buffer, 30 min, 25° C., 460 nm, average of 2 values (6 for * = Exceptional Bleaching Aldehyde)
# Protocol: A general outline of the essential steps in our experimental protocol are shown below.
# a) Measure the initial reflectance of the swatches (Ri).
# b) Saturate the wash solution with air.
# c) Wash, rinse and dry the swatches.
# d) Measure the final reflectance of the swatches (Rf).
# All work was conducted in a Tergotometer with 2L stainless steel pots. The swatches were dried flat on a rack in a Kenmore dryer. […] The conditions utilized were as follows:
# Initiator N-Hydroxyphthalimide (NHPI, 1 mM)
# Aldehyde Aldehyde (15 mM)
# Each Tergotometer Pot was filled with 1 liter of milli-Q-water containing carbonate buffer solution which was saturated for 15 minutes with air under agitation at 25° C. Tea stained (BC-1) swatches were washed for 30 minutes in the presence of aldehyde, air and NHPI at pH=8 (25° C.). The corresponding controls (buffer alone, NHPI alone and aldehyde alone) were performed simultaneously. All swatches were rinsed twice for 3 minutes with agitation at 25° C. and dried flat on a rack in a Kenmore with soft heat for 30 minutes.
# To quantify the degree of stain removal, the reflectance of 4 stained swatches (4 per pot) were measured before and after washing using a Gardner reflectometer (Model #2000) set at 460*nm (*UV filter). The change in reflectance (ΔR) was determined by taking the difference of the swatch before and after each washing. The standard deviation (σ) and ΔΔRave was assigned to each experimental group.
# Rl =Initial reflectance of stained swatch before washing.
# Rf =Final reflectance of stained swatch after washing.
# ΔRaldehyde system+control -ΔRcontrol =ΔΔR
# ΔΔRave =Represents the average bleaching by the aldehyde system.
# In general, the larger the ΔΔRave value, the greater the bleaching and cleaning.
# (σ)=[Σ^n aj -aa)^2 /N-I]^0.5
# Σ^n =sum (aj -aa)^2 per measurement
# N=number of measurements=8
Structure (SMILES),cleaning / bleaching (in words) [1],ΔΔRave on BC-1 at pH = 8 [2],ΔΔRave ([1]; initiator alone),"Δ(ΔR), Average ([1]; initiator alone, 1 mM, average of #1-#3, σav = 0.4)","Δ(ΔR), #1 ([1]; initiator alone, 1 mM, run #1, σav = 0.4)","Δ(ΔR), #2 ([1]; initiator alone, 1 mM, run #2, σav = 0.4)","Δ(ΔR), #3 ([1]; initiator alone, 1 mM, run #3, σav = 0.4)"
CCc1ccc(C=O)cc1 [4-Ethylbenzaldehyde],small and inconsistent; also recorded: do not effectively clean stubborn tea stains,11.5,–,–,–,–,–
"O=C1c2ccccc2C(=O)N1O [NHPI, N-hydroxyphthalimide]",did not provide a cleaning benefit,–,-0.2,-0.3,-0.1,0.1,-0.7
